Laboratory results reported in article PMC12355554, “Development of novel mitochondrial pyruvate carrier inhibitors for breast cancer treatment” (The Journal of Biological Chemistry, 2025).
“Also recorded” adds a separate entry of the source.

How the values were obtained:
67NR [1] = assay: Sulforhodamine B cell proliferation inhibition assay, 67NR; assay type: cell-based, murine; conditions: Mus musculus, 72 h, average ± SEM
Protocol: (§1) Cells were seeded (3 × 10^4 cells/well) in 48-well plates and incubated overnight (37 °C, 5% CO2). Test compounds were then exposed to cells in duplicate in serial dilution fashion and were incubated for an additional 72 h (37 °C, 5% CO2). Media were then aspirated, and cells were washed three times with cold PBS and left overnight to dry fix. […] Dyed cells were then lysed with Tris (10 mM, pH 10), and absorbance readings were recorded at 540 nm of each well. Treatment absorbances are taken as percentages of the average untreated absorbances and plotted against log(concentration) in GraphPad Prism 10 to generate effective concentration values where 50% of the cells are not proliferating (EC50).

4T1 cells [2] = assay: L-lactate accumulation assay, 4T1; conditions: MCT1-expressing 4T1 cells; 24 h
Protocol: To test this, we assayed intracellular lactate accumulation following C5 treatment in MCT1-expressing 4T1 cells and MCT4-expressing MDA-MB-231 cells using commercially available lactate kits.
On the third day, media were aspirated, and wells were rinsed twice with cold PBS. […] At this time, 1 ml of PBS was added to each well and underwent freeze–thaw lysis at −80 °C. Media in each well were aliquoted and centrifuged (16,000g, 10 min, 4 °C). The lysate supernatant was then aliquoted, and pellet was discarded. L-lactate concentration was then determined using Eton Biosciences L-Lactate assay kit 1 by mixing lysate sample with L-lactate assay solution in duplicate, incubating for 30 min (37 °C, 0% CO2) and measuring absorbance of enzyme produced INT formazan at 490 nm using a BioTek Synergy 2 plate reader. Absorbance values were compared with an L-lactate standard curve concomitantly ran with test samples to determine lactate concentration in each sample. Lactate concentrations were normalized to total protein using a Pierce Bicinchoninic Acid Protein Assay Kit.

[3] = tested on: glutamate-driven respiration in 4T1 cells; assay: Seahorse glutamate-driven respiration in permeabilized 4T1 cells; assay type: cell-based, murine; conditions: Glu/Mal, candidate compounds 1 μM
Source text: (§2) Although our initial experiments and previous literature illustrate the ability of the candidate compounds to inhibit Pyr-driven respiration, we sought to investigate the ability of candidate compounds to inhibit respiration fueled by other metabolic substrates, glutamate and succinate (Fig. 2). Glutamate, similar to Pyr oxidation, results in NADH equivalents that fuel complex I-mediated respiration, and succinate metabolism offers FADH2 for electrons in complex II-driven respiratory processes. […] To further validate the mode of action of the candidate compounds, a series of similar Seahorse experiments were employed (Fig. 2, A–C). In these experiments, 4T1 cells were first permeabilized and were then offered metabolic substrates Pyr (Pyr/Mal; Fig. 2A), glutamate (Glu/Mal, Fig. 2B), or succinate (Fig. 2C), and the resulting OCR was observed. As described previously, Mal and DCA were included in the substrate milieu of glutamate respiration experiments. […] To validate that inhibition of Pyr respiration is due to mitochondrial Pyr uptake and not other Pyr-processing enzymes (i.e., Pyr dehydrogenase), a parallel experiment using methyl pyruvate (MePyr) was employed (Fig. 2, E and F). MePyr is permeable to the mitochondrial membranes, where in the matrix, mitochondrial esterase hydrolysis activity provides Pyr.
(§3) Permeabilized cell assays were performed using rPFO as described previously. 4T1 cells were seeded (20,000 cells/well) onto Seahorse XFe96 well plates and incubated overnight in growth media at 37 °C and 5% CO2 for adherence. On the day of the assay, growth media were aspirated and replaced with MAS buffer (70 mM sucrose, 220 mM mannitol, 10 mM potassium phosphate monobasic, 5 mM magnesium chloride, 2 mM Hepes, and 1 mM EGTA) after 3X rinse of growth media to remove serum and endogenous metabolic substrates, and incubated at 37 °C in a non-CO2 incubator. Respective inhibitor and substrate milieu's were prepared in MAS buffer for port injections A–D at 8X, 9X, 10X, and 11X the target cell concentrations to account for intrinsic dilution factor of in situ injections of each port. […] Final substrate concentrations for specific tests were as follows: (5 mM Pyr , 0.5 mM Mal, 2 mM DCA; 10 mM glutamate, 0.5 mM Mal, 2 mM DCA; 10 mM succinate, 2 μM rotenone; 20 mM methyl Pyr, 5 mM Pyr, 0.5 mM Mal, and 2 mM DCA). ATP rate assays and mitochondrial stress tests were performed according to the manufacturer's (Agilent) instructions.

4T1 cells [4] = assay: Seahorse mitochondrial stress test in intact 4T1 cells; assay type: cell-based, murine
physchem = conditions: water
Source text: Starting with the carboxylic acid 24, various salt forms were generated to increase the water solubility.

MDA-MB-231 = assay: Sulforhodamine B cell proliferation inhibition assay, MDA-MB-231; assay type: cell-based; conditions: Homo sapiens, 72 h
Protocol: as §1

4T1 = assay: MTT cell proliferation inhibition assay, 4T1; assay type: cell-based, murine; conditions: Mus musculus, 72 h, 3 days, average ± SEM
Protocol: (§4) Confluent cell cultures were treated with trypsin and resuspended at 5 × 10^4 cells/ml. To a 96-well plate, 100 μl of the 5 × 10^4 cells/ml solution were added and allowed to incubate at 37 °C, 5% CO2 for 24 h. Compounds were then added and allowed to incubate for 3 days. […] Following the 4-h incubation with 3-(4,5-dimethylthiazol-2-yl)-2,5-diphenyltetrazolium bromide, 100 μl of SDS (0.1 g/ml, 0.01 N HCl) was added, and 96-well plates were allowed to incubate for an additional 4 h. […] Treatment absorbances are taken as percentages of the average untreated absorbances and plotted against log(concentration) in GraphPad Prism 10 (GraphPad Software, Inc) to generate effective concentration values where 50% of the cells are not proliferating (EC50).

67NR [5] = assay: MTT cell proliferation inhibition assay, 67NR; assay type: cell-based, murine; conditions: Mus musculus, 72 h, 3 days, average ± SEM
Protocol: as §4

[6] = tested on: succinate-driven respiration in 4T1 cells; assay: Seahorse succinate-driven respiration in permeabilized 4T1 cells; assay type: cell-based, murine; conditions: candidate compounds 1 μM
Source text: as §2, §3

[7] = tested on: MPC or MCT expression levels; assay: Western blotting of MPC and MCT expression; assay type: cell-based; conditions: Western blot
Protocol: After denaturation at 95 °C for 10 min in radioimmunoprecipitation buffer, protein concentration was determined and equilibrated using the bicinchoninic acid assay (ThermoScientific), and 20 μg of protein was separated by electrophoresis in 4 to 12% polyacrylamide gels. Proteins were electrophoretically transferred to polyvinylidene fluoride membranes for 90 min at 100 V and stained with Ponceau to verify transfer quality and equal protein loading. […] Santa Cruz, catalog no.: sc-365501, 1:1000 dilution; MCT4, Santa Cruz, catalog no.: sc-376140, 1:1000 dilution; MPC1, Cell Signaling, 1:1000 dilution, catalog no.: 14462; MPC2, Cell Signaling, 1:1000 dilution, catalog no.: 46141; […] TBST, 0.5% nonfat milk protein). Membranes were rinsed three times with TBST and incubated with the respective secondary goat antimouse IgG (1:10,000 dilution) or goat anti-rabbit IgG (1:10,000 dilution) horseradish peroxidase–conjugated antibodies (Cell Signaling). Membranes were again washed three times with TBST and exposed to SuperSignal 60 West luminol enhancer and stable peroxide solution (ThermoScientific) for 2 min. Chemiluminescent images were obtained using a LicorFC imager. Images shown are representative of two separate experiments obtained from independent biological samples.

CN(Cc1ccc(C(F)(F)F)cc1)c1ccc2cc(C(=O)O)c(=O)oc2c1.NC(CO)(CO)CO [C5, 1,3-dihydroxy-2-(hydroxymethyl)propan-2-aminium 7-(methyl(4-(trifluoromethyl)benzyl)amino)-2-oxo-2H-chromene-3-carboxylate]
EC50 (67NR [1]): 94.7 ± 12.9 µM
intracellular lactate accumulation (4T1 cells [2]): potent accumulation of lactate
effect on glutamate-driven respiration [3]: does not alter; also recorded: did not alter
compensatory glycolysis (extracellular acidification rates) (4T1 cells [4]): dose-dependent decrease
mitochondrial respiration (OCR) (4T1 cells [4]; media with glucose, Pyr, glutamine): inhibited mitochondrial respiration in a dose-dependent fashion
solubility (physchem): 10000 µg/mL
EC50 (MDA-MB-231): > 1000 µM
EC50 (4T1): 23.4 ± 4.9 µM
clinical observations after single oral dose (oral 10, 25, and 40 mg/kg, 7 days): no signs of clinical toxicity
gross pathology, including general cardiotoxicity, after organ resection (oral, end of study): no gross pathology
EC50 (67NR [5]): 48 ± 4.3 µM
effect on succinate-driven respiration [6]: does not alter; also recorded: did not alter
effect on MPC or MCT expression levels [7]: does not alter
